Data on 8 molecules can be found in PubChem BioAssay (NCI).

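Each compound was tested at five concentrations against cells in 96-well plates for 48 hours. TGI marks complete inhibition of growth.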

Some test systems named below: DU-145 prostate; M14 melanoma; HOP-92 NSCLC; OVCAR-5 ovarian; RPMI-8226 leukemia; RXF 393 renal; HCT-116 colon; MALME-3M melanoma; BT-549 breast; LOX IMVI melanoma; OVCAR-3 ovarian; HOP-62 NSCLC; TK-10 renal; SF-539 CNS; SK-MEL-5 melanoma; UACC-257 melanoma; U251 CNS; MDA-MB-231 breast; MCF7 breast; SK-MEL-28 melanoma.
What all share (assay): NCI anticancer screen, dose series, 48 h

As to `O=c1[nH]nc(-c2ccccc2)c2[nH]c(-c3ccccc3)cc12`, the TGI in the test with DU-145 prostate, in the test with M14 melanoma, in the test on HOP-92 NSCLC, with OVCAR-5 ovarian, with RPMI-8226 leukemia and in the test with RXF 393 renal was above 100 µM in each case. Moreover, the TGI with HCT-116 colon, in the test on MALME-3M melanoma, with BT-549 breast, in the test with LOX IMVI melanoma, in the test on OVCAR-3 ovarian and with HOP-62 NSCLC was above 100 µM throughout.
With `COc1ccc2c(c1)CC1=C(O2)c2ccc(OC)cc2OC1`, the TGI in the test with DU-145 prostate is above 100 µM; with TK-10 renal, 46.3 µM; with M14 melanoma it was 37.3 µM; with SF-539 CNS, 85.1 µM; with OVCAR-5 ovarian it was above 100 µM; in the test with SK-MEL-5 melanoma it was 42.4 µM. Moreover, the TGI is above 100 µM with RPMI-8226 leukemia; 41.8 µM in the test on HCT-116 colon; 45.5 µM in the test with MALME-3M melanoma; 38.8 µM with BT-549 breast; 27.2 µM in the test on LOX IMVI melanoma; 37.8 µM with UACC-257 melanoma. Moreover, the TGI in the test on U251 CNS was 39.9 µM; with OVCAR-3 ovarian, 36.4 µM; in the test with HOP-62 NSCLC, above 100 µM; in the test on MDA-MB-231 breast, 89.6 µM.
For `O=C(Cc1ccccc1)NN1C(=O)/C(=C\c2ccc([N+](=O)[O-])cc2)SC1=Nc1ccccc1`, the TGI with DU-145 prostate, in the test on TK-10 renal, with M14 melanoma, in the test with HOP-92 NSCLC, in the test on SF-539 CNS and with OVCAR-5 ovarian was above 100 µM each time. Further, the TGI in the test on SK-MEL-5 melanoma, in the test with RPMI-8226 leukemia, with RXF 393 renal, in the test with HCT-116 colon, in the test on MCF7 breast and in the test on UACC-257 melanoma was above 100 µM throughout. Moreover, the TGI in the test on U251 CNS, in the test on OVCAR-3 ovarian, in the test on SK-MEL-28 melanoma, in the test with HOP-62 NSCLC and in the test with MDA-MB-231 breast was above 100 µM in each case.
As for `Nc1ccc2[nH]c(-c3cccc(Cl)c3)cc(=O)c2c1`, the TGI is 8.55 µM in the test on TK-10 renal; above 100 µM with M14 melanoma; 9.69 µM in the test with HOP-92 NSCLC; 5.15 µM in the test on SF-539 CNS; above 100 µM in the test on OVCAR-5 ovarian; above 100 µM in the test with SK-MEL-5 melanoma. The TGI in the test on MALME-3M melanoma is above 100 µM; in the test with MCF7 breast, above 100 µM; in the test with BT-549 breast, above 100 µM; with UACC-257 melanoma it was above 100 µM; in the test with U251 CNS, 70.4 µM; with SK-MEL-28 melanoma it was above 100 µM. Besides, the TGI in the test on HOP-62 NSCLC and in the test with MDA-MB-231 breast was above 100 µM in each case.
Turning to `CC1CC(=O)Nc2nc3ccccc3n21` (stereo unspecified), the TGI in the test on TK-10 renal, with M14 melanoma, in the test with HOP-92 NSCLC, in the test on SF-539 CNS, in the test with OVCAR-5 ovarian and in the test on SK-MEL-5 melanoma was above 100 µM each time. The TGI in the test with RPMI-8226 leukemia, in the test with RXF 393 renal, in the test on HCT-116 colon, in the test on MALME-3M melanoma, with MCF7 breast and in the test on BT-549 breast was above 100 µM in each case. Further, the TGI in the test with LOX IMVI melanoma, in the test with UACC-257 melanoma, with U251 CNS, in the test on OVCAR-3 ovarian, in the test on HOP-62 NSCLC and with MDA-MB-231 breast was above 100 µM throughout.
For `C=C1C(=O)O[C@@]23C1CC[C@@H](C)C2CC[C@@]1(C)OC31` (stereo partly specified), the TGI turned out to be 35.5 µM with DU-145 prostate; 16.8 µM in the test on TK-10 renal; 12.9 µM in the test on M14 melanoma; 24.2 µM in the test on HOP-92 NSCLC; 12.2 µM in the test with SF-539 CNS; 26.7 µM in the test on OVCAR-5 ovarian. The TGI in the test on SK-MEL-5 melanoma is 12.3 µM; in the test on RPMI-8226 leukemia it was 16.8 µM; in the test on RXF 393 renal it was 39.9 µM; in the test with HCT-116 colon, 21.3 µM; in the test with MALME-3M melanoma, 7.59 µM; with MCF7 breast, 24.9 µM. For the same molecule, the TGI in the test with BT-549 breast came out at 23.7 µM; in the test with LOX IMVI melanoma it was 26.6 µM; in the test on UACC-257 melanoma it was 24.4 µM; in the test with U251 CNS, 19.3 µM; in the test on OVCAR-3 ovarian, 13.4 µM; in the test with SK-MEL-28 melanoma it was 22.6 µM. In addition, in the test on HOP-62 NSCLC, the TGI came out at 39.3 µM.
For `Cn1c2ccccc2n2c(=O)c3cc([N+](=O)[O-])ccc3c(C#N)c12`, the TGI in the test on DU-145 prostate, in the test on TK-10 renal, with M14 melanoma, in the test on SF-539 CNS, in the test on OVCAR-5 ovarian and with SK-MEL-5 melanoma was above 100 µM each time. Further, the TGI with RPMI-8226 leukemia, in the test with RXF 393 renal, in the test with HCT-116 colon, with MCF7 breast, in the test with BT-549 breast and in the test on LOX IMVI melanoma was above 100 µM in each case. In addition, the TGI in the test on UACC-257 melanoma, in the test on U251 CNS, in the test with OVCAR-3 ovarian, with SK-MEL-28 melanoma and with HOP-62 NSCLC was above 100 µM each time.
On to `COc1ccc2c(c1)CN1C(=N2)CSC1c1ccccc1Cl` (stereo unspecified), for which the TGI in the test with TK-10 renal is 68 µM; in the test on M14 melanoma it was 35.4 µM; with HOP-92 NSCLC, 31.2 µM; with SF-539 CNS it was 32.1 µM; with OVCAR-5 ovarian, 46.8 µM; in the test with SK-MEL-5 melanoma, 28.5 µM. Moreover, the TGI in the test on RPMI-8226 leukemia was 29.9 µM; in the test with RXF 393 renal, 29.7 µM; in the test on HCT-116 colon, 33.1 µM; in the test on MALME-3M melanoma, 47.9 µM; in the test with MCF7 breast, above 100 µM; in the test on BT-549 breast, 80.3 µM. Moreover, the TGI was 28.9 µM with LOX IMVI melanoma; 28.8 µM with UACC-257 melanoma; 59.6 µM with U251 CNS; 26.9 µM in the test with SK-MEL-28 melanoma; above 100 µM in the test on HOP-62 NSCLC; 67.5 µM with MDA-MB-231 breast.
